For one assay, the system named is tumor cells. Nature of the assay: Electron microscopy analysis of treated tumor cells. In kind it is cell-based. From the text: FIGS. 4A-4L illustrate that PET-16 impairs proteostasis. […] There is a general absence of obvious nuclei in PET-16 treated tumor cells. […] FIGS. 4D and 4E are gels of whole-cell extracts (WCE) prepared from human melanoma A875 (D) or 451 Lu (E) cells treated with DMSO, PES or PET-16 that were immunoprecipitated using an anti-HSP70 antibody. The excised band of about 70 kDa shown in the Coomassie gel is HSP70, as confirmed by liquid chromatography—tandem mass spectrometry analysis. FIGS. 4F-4I are western blots of cell lines were treated with DMSO, PES or PET-16 for 24 h and immunoblotted for the indicated proteins. FIG. 4J are western blots of indicated melanomas pretreated with DMSO, PES or PET-16, followed by treatment with IL-6. Cell extracts were immunoblotted for the proteins indicated. Inhibition of IL-6 induced STAT3 and STAT1 phosphorylation by PET-16. FIG. 4K is a western blot analysis indicating altered processing of cathepsin L from the larger precursor form to the smaller mature form in the indicated cells following PET-16 treatment for 24 h. FIG. 4L is a western blot of the human melanoma 451 Lu cells treated with DMSO, PES or PET-16 for 24 h. Cells were harvested in 1% NP40-containing lysis buffer, fractionated into detergent-soluble and detergent-insoluble preparations, and assayed by western blot for ubiquitin. […]

The subject of assay [1] is melanoma tumor cell lines. Nature of the assay: Cellular ATP levels (AlamarBlue assay) in tumor cells. It is filed as cell-based, human. From the text: FIGS. 5A-5F illustrates that PET-16 leads to loss of mitochondrial protein Cyclophilin D and impairs bioenergetics in tumor cells. FIGS. 5A-5D are western blots of HSP70, which is present at mitochondria of tumor H1299 cells but not in normal tissue, such as liver. The constitutively expressed 70 kDa family members, HSC70 and GRP75, are present in mitochondria of normal cells. Equal amounts of whole cell (WC)-, cytosolic (cyto)-, and mitochondrial (mito)-extracts prepared from cell lines H1299 (A, C) and MIA PaCa-2 (B) or normal (liver) cells (C, D) were examined by western blot analysis for the presence of the proteins indicated. […] Decreases of AlamarBlue® fluorescence, indicative of mitochondrial damage, are noted in PET-16-treated tumor cells (melanoma tumor cell line WM88 (-), melanoma tumor cell line WM3000 (×), melanoma tumor cell line WM852 (*), human melanoma 451 Lu cells (●), and melanoma tumor cell line WM989 (|), but not normal cells (nontransformed human fibroblasts (IMR90-♦) and primary melanocytes (▪)). Values are normalized to the vehicle-treated cells. Error bars represent standard deviation (s.d.) of four independent experiments.

Assay [2] deals with mouse melanoma cell line Yumm 1.7. The experiment in a line: In vivo melanoma model, Yumm 1.7. The following applies: single agent, C57BL/6 mice. The method, then: FIGS. 14A and 14B provide evidence that PET-16 impairs melanoma growth in vivo as a single agent. A well-recognized pulmonary metastatic model was utilized in which immunocompetent, wild-type C57BL/6 mice were injected with the metastatic mouse melanoma cell line Yumm 1.7, as indicated. […] FIG. 14A is a summary of the steps entailed in the model.

The next assay deals with HSP70 (Homo sapiens, UniProt P0DMV8). Nature of the assay: B-PES pull-down assay in cultured tumor cells. It is filed as cell-based. Also on record: endogenous in cells. To be noted: H1299 cells pretreated with excess (8×) compound for 1 h, then 20 μM B-PES. From the text: FIGS. 3A-3L illustrate that PET-16 binds directly to ADP-bound HSP70 and DnaK. Specifically, FIGS. 3A-3H are isothermal calorimetric titration (ITC) assays of the indicated compounds (NRLLLTG—SEQ ID NO: 7, PES or PET-16) with purified HSP70-ADP, DnaK-ADP or HSP70-ATP proteins. The data are representative of three independent experiments. FIGS. 3I and 3J are ITC assays for the interaction between HSP70 (aa 386-616 of SEQ ID NO: 2) protein and PET-16 (I) or TPP (J). Binding constants (Kd values) are shown (average and s.d. from three independent experiments). PET-16 also binds directly to the purified, full-length, nucleotide-free HSP70 protein, with a reported dissociation constant of 5.2+/−0.1 micromolar, which is the average and standard deviation from two independent experiments (data not shown). FIG. 3K is ITC assay of HSP70 protein preincubated with ADP and PES for 1 h. The mixture was titrated into the sample cell containing PET-16. The data are representative of three independent ITC experiments. FIG. 3L are western blots of human lung carcinoma (H1299) cells that were pretreated with DMSO or excess (8×) PET-16 for 1 h prior to the addition of 20 μM B-PES for 5 h and examined for the expression of HSP70 or BCL-xL. B-PES-containing complexes were captured by Avidin resins and immunoblotted either with anti-HSP70 or anti-BCL-xL antibody. […]
Sequence of HSP70 (P0DMV8 whole entry, the tested form may be a part): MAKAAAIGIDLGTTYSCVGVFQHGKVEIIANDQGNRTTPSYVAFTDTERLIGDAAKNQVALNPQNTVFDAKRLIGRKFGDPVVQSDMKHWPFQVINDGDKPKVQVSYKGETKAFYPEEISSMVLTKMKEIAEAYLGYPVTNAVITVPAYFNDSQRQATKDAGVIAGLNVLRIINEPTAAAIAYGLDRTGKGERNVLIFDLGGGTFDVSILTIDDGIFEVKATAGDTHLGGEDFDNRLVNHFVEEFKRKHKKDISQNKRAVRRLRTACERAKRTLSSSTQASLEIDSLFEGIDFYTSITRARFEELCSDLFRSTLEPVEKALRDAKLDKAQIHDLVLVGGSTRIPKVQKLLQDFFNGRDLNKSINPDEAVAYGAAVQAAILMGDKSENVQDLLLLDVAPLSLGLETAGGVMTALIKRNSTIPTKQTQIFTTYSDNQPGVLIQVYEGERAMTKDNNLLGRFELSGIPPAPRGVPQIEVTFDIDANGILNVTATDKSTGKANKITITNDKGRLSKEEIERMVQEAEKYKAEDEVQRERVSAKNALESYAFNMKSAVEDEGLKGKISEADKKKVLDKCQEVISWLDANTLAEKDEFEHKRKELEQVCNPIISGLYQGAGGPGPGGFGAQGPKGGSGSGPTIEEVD

Regarding `C(#C[P+](c1ccccc1)(c1ccccc1)c1ccccc1)c1ccccc1.[Br-]` [PET-16, triphenyl(phenylethynyl)phosphonium bromide], the “autophagy and proteostasis by EM” value with tumor cells is “altered autophagy and impaired proteostasis”. Moreover, the “AlamarBlue fluorescence (mitochondrial function)” value in assay [1] was “clear decrease”. In addition, the “melanoma growth in vivo” value in assay [2] is recorded as “inhibits melanoma xenograft growth”. Besides, the “amount of HSP70 in complex with B-PES” value at HSP70 was “clearly reduced”.

For the origin of these results see patent US10010560B2, “Small molecule HSP70 inhibitors” (THE TRUSTEES OF THE UNIVERSITY OF PENNSYLVANIA, priority 2014, dated 2018).
